Results reported in ChEMBL document CHEMBL3046742, “Isolation and anxiolytic activity of 3,4-bis(3,4-dimethoxyphenyl)furan-2,5-dione from the ethanolic extract of heart wood of Cedrus deodara” (2012).
The source made the active and inactive calls. No cut-off for these calls is given here.

Experiments:
Mus musculus [1] = assay: Anxiolytic activity in Mus musculus Swiss albino (mouse) assessed as increase in time spent in light zone at 30 mg/kg, po administered 1 hr prior to testing measured for 5 min by light-dark test (reference value: 64 +/- 4.02 secs); type: functional
Mus musculus [2] = assay: Anxiolytic activity in Mus musculus Swiss albino (mouse) assessed as increase in ambulation at 200 to 400 mg/kg, po administered 45 min prior to testing measured for 5 min by open-field test relative to control; type: functional, organism-based
Mus musculus [3] = assay: Anxiolytic activity in Mus musculus Swiss albino (mouse) assessed as increase in ambulation at 100 mg/kg, po administered 45 min prior to testing measured for 5 min by open-field test relative to control; type: functional, organism-based; set-up: dose 100 mg/kg
Mus musculus [4] = assay: Anxiolytic activity in Mus musculus Swiss albino (mouse) assessed as increase in time spent in open arms at 100 mg/kg, po administered 1 hr prior to testing measured for 5 min by plus-maze test (reference value: 23 +/- 1.63 secs); type: functional
Mus musculus [5] = assay: Anxiolytic activity in Mus musculus Swiss albino (mouse) assessed as decrease in immobility duration at 2 mg/kg, po administered 1 hr prior to testing measured for 5 min by light-dark test relative to control; type: functional, organism-based; set-up: dose 2 mg/kg
Mus musculus [6] = assay: Anxiolytic activity in Mus musculus Swiss albino (mouse) assessed as increase in time spent in light zone at 10 mg/kg, po administered 1 hr prior to testing measured for 5 min by light-dark test (reference value: 64 +/- 4.02 secs); type: functional
Mus musculus [7] = assay: Anxiolytic activity in Mus musculus Swiss albino (mouse) assessed as time spent in neutral zone at 30 mg/kg, po administered 1 hr prior to testing measured for 5 min by plus-maze test (reference value: 70 +/- 5.63 secs); type: functional
Mus musculus [8] = assay: Anxiolytic activity in Mus musculus Swiss albino (mouse) assessed as time spent in neutral zone at 100 mg/kg, po administered 1 hr prior to testing measured for 5 min by plus-maze test (reference value: 70 +/- 5.63 secs); type: functional
Mus musculus [9] = assay: Anxiolytic activity in Mus musculus Swiss albino (mouse) assessed as increase in time spent in light zone at 100 mg/kg, po administered 1 hr prior to testing measured for 5 min by light-dark test (reference value: 64 +/- 4.02 secs); type: functional
Mus musculus [10] = assay: Anxiolytic activity in Mus musculus Swiss albino (mouse) assessed as increase in time spent in open arms at 30 mg/kg, po administered 1 hr prior to testing measured for 5 min by plus-maze test (reference value: 23 +/- 1.63 secs); type: functional
Mus musculus [11] = assay: Anxiolytic activity in Mus musculus Swiss albino (mouse) assessed as time spent in neutral zone at 10 mg/kg, po administered 1 hr prior to testing measured for 5 min by plus-maze test (reference value: 70 +/- 5.63 secs); type: functional
Mus musculus [12] = assay: Anxiolytic activity in Mus musculus Swiss albino (mouse) assessed as increase in time spent in open arms at 10 mg/kg, po administered 1 hr prior to testing measured for 5 min by plus-maze test (reference value: 23 +/- 1.63 secs); type: functional
Mus musculus [13] = assay: Anxiolytic activity in Mus musculus Swiss albino (mouse) assessed as increase in time spent in open arms at 2 mg/kg, po administered 1 hr prior to testing measured for 5 min by plus-maze test (reference value: 23 +/- 1.63 secs); type: functional
Mus musculus [14] = assay: Anxiolytic activity in Mus musculus Swiss albino (mouse) assessed as increase in ambulation at 2 mg/kg, po administered 45 min prior to testing measured for 5 min by open-field test relative to control; type: functional, organism-based; set-up: dose 2 mg/kg
Mus musculus [15] = assay: Anxiolytic activity in Mus musculus Swiss albino (mouse) assessed as increase in time spent in light zone at 2 mg/kg, po administered 1 hr prior to testing measured for 5 min by light-dark test (reference value: 64 +/- 4.02 secs); type: functional
Mus musculus [16] = assay: Anxiolytic activity in Mus musculus Swiss albino (mouse) assessed as time spent in neutral zone at 2 mg/kg, po administered 1 hr prior to testing measured for 5 min by plus-maze test (reference value: 70 +/- 5.63 secs); type: functional

| SMILES | Time (Mus musculus [1]) | Activity (Mus musculus [2]) | Activity (Mus musculus [3]) | Time (Mus musculus [4]) | Activity (Mus musculus [5]) | Time (Mus musculus [6]) | Time (Mus musculus [7]) | Time (Mus musculus [8]) | Time (Mus musculus [9]) | Time (Mus musculus [10]) | Time (Mus musculus [11]) | Time (Mus musculus [12]) | Time (Mus musculus [13]) | Activity (Mus musculus [14]) | Time (Mus musculus [15]) | Time (Mus musculus [16]) |
| --- | --- | --- | --- | --- | --- | --- | --- | --- | --- | --- | --- | --- | --- | --- | --- | --- |
| COc1ccc(C2=C(c3ccc(OC)c(OC)c3)C(=O)OC2=O)cc1OC | 120 s | inactive | Active | 151 s | Active | 95 s | 45 s | 29 s | 145 s | 110 s | 65 s | 66 s | – | – | – | – |
| CN1C(=O)CN=C(c2ccccc2)c2cc(Cl)ccc21 [DIAZEPAM] | – | – | – | – | – | – | – | – | – | – | – | – | 166 s | Active | 171 s | 32 s |
